Laboratory results: patent publication US11059855B2, “Antimicrobial peptides and methods of making and using same” (priority 2017, dated 2021)

Columns and labels:
[1] = previous work; cited from earlier work
[2] = ANTS/DPX leakage assay, POPC; assay type: biochemical; conditions: P:L = 1:1000, pH 7 phosphate buffer
Procedure: (§1) 5 mM ANTS and 12.5 mM DPX were entrapped in 0.1 μm diameter extruded vesicles with lipids. Gel filtration chromatography of Sephadex G-100 (GE Healthcare Life Sciences Inc.) was used to remove external free ANTS/DPX from LUVs with entrapped contents. […] Leakage was measured after 3 hr incubation. 10% Triton was used as the positive control to measure the maximum leakage of the vesicle. Fluorescence emission spectra were recorded using excitation wavelength (Ex: 350 nm) and emission wavelength (Em: 510 nm) for ANTS/DPX using Synergy H1 Hybrid Multi-Mode Reader.
(§2) This detects and quantifies the release of a small fluorescent dye (ANTS/DPX; MW=˜400 Da) encapsulated in LUVs after addition of library peptides. Neutral POPC LUVs serve as a simple model for mammalian membranes, while charged POPG LUVs mimic bacterial membranes enriched in anionic lipids.

[3] = test system: human red blood cells; assay: Hemolysis assay; assay type: cell-based
Procedure: (§3) Fresh human red blood cells were obtained from Interstate Blood Bank, Inc., and thoroughly washed in PBS until the supernatant was clear. hRBC concentration was determined using a standard hemocytometer. In hemolysis assays serial dilutions of peptide were prepared, followed by the addition of 2×10^8 hRBC/mL. After incubation for 1 hr at 37° C. the cells were centrifuged and the released hemoglobin was measured by optical absorbance of the heme group (410 nm). Negative control was buffer only (0% lysis), and the positive control was 20 μM melittin and distilled water (100% lysis). The samples were done in triplicate.

[4] = Hemolysis assay; assay type: cell-based, human; conditions: human
Procedure: as §3

[5] = provided by the distributor, GenScript; cited from earlier work
[6] = Membrane selectivity from high-throughput dye leakage screen; assay type: biochemical; conditions: PC = POPC, PG = POPG
Text: as §2

[7] = 3-kDa dextran macromolecule release assay, POPG; assay type: biochemical; conditions: P:L = 1:1000, pH 7 phosphate buffer
[8] = test system: P. aeruginosa; assay: Bacterial minimum inhibitory concentration (MIC), P. aeruginosa; assay type: cell-based, Pseudomonas aeruginosa; conditions: 75 μM maximum tested; NDA = not determinable
Procedure: (§4) Escherichia colt strain ATCC 25922, Staphylococcus aureus strain ATCC 25923, and Pseudomonas aeruginosa strain ATCC PAO1 were used in this study. Overnight cultures were subcultured to log phase (OD600=0.3-0.6) after which cell counts were determined by measuring the OD600 (OD600 1.0=1.5×10^8 CFU/mL for S. aureus, 5×10^8 CFU/mL for E. colt, and 2.04×10^8 CFU/mL for P. aeruginosa). Bacteria in minimal media mere added to serially diluted peptides and incubated for 3 hr, followed by the addition of full growth media. After overnight incubation, the optical density of the wells was recorded on a plate reader to determine whether they were sterilized (OD<0.08) or were at stationary phase growth (OD600>0.5). Intermediate values, which were rare, were considered positive for growth. Average minimum sterilizing concentrations were calculated from the lowest peptide concentration that sterilized the bacteria in each serial dilution. The samples were done in sextuplet.

[9] = test system: ciprofloxacin-resistant E. coli
Procedure: “N.D.” means “not determined”.
Ceftazidime is active on the bacteria's cell wall and interferes with bacterial cell wall formation.^38,39 Ciprofloxacin is able to inhibit DNA gyrase, type II topoisomerase, and topoisomerase IV to separate bacterial DNA and inhibits cell division.^40 Streptomycin and gentamicin are antibiotics that can interrupt and inhibit protein synthesis.^41,42 E. coli strain ATCC 25922 cultures were grown in the presence of each of these antibiotics at elevated concentration for 10 generations.

[10] = test system: Escherichia coli biofilm; assay: Activity against biofilm, E. coli; assay type: cell-based; conditions: 67-150 μM peptide, 3 hr treatment
Procedure: (§5) Selected analogues were tested with each (13A). Escherichia coli biofilm, (13B). Staphylococcus aureus biofilm, and (13C) Pseudomonas aeruginosa biofilm.
(§6) However, most of the LDKA analogues fail to treat S. aureus and P. aeruginosa biofilms. Only K7H and 7F3 are capable to reduce S. aureus biofilms by ˜50% with 100 μM peptide concentration, and none of the analogues work against P. aeruginosa biofilms (FIGS. 13a-13c).

[11] = Circular dichroism secondary structure (Dichroweb), with POPC; assay type: physicochemical
Procedure: (§7) Dichroweb software analyzes the secondary structure of LDKA peptides from circular dichroism spectroscope. The table presents the percentage of each helix and strand structure at different temperature. The data are analyzed using CONTIN-LL method and Reference Set 4 (Optimised for 190-240 nm).
(§8) Peptide solutions (peptide concentration is 50 μM) were titrated with POPC and POPG LUVs (50, 100, 250, 500, 1000 μM) and the corresponding changes CD spectra collected. Analysis of these spectra using CD tools and Dichroweb provides an ensemble average of the changes in secondary structure in the presence of POPC and POPG LUVs (dichroweb.cryst.bbk.ac.uk), which gives a direct measure of the binding free energies for each peptide.

[12] = test system: Staphylococcus aureus biofilm; assay: Activity against biofilm, S. aureus; assay type: cell-based; conditions: 100 μM peptide concentration, 3 hr treatment
Procedure: as §5, §6

[13] = 3-kDa dextran macromolecule release assay, POPC; assay type: biochemical; conditions: P:L = 1:1000, pH 7 phosphate buffer
Procedure: Several different size dextrans were prepared and labelled with both TAMRA and biotin. Conjugated dextran was entrapped in POPC LUVs as described above. External dextran was removed by incubation with immobilized streptavidin. Streptavidin labelled with an Alexa-488 fluorophore was added during the leakage experiment with the peptide as previous described.^5 The sample was then incubated for 3 hr before measuring Alexa-488 fluorescence. A control without added peptide served as the 0% leakage signal and addition of 0.05% vol. Triton X-100 was used to determine 100% leakage.

[14] = Circular dichroism secondary structure (Dichroweb), peptide only; assay type: physicochemical; conditions: 20 °C
Procedure: as §7, §8

[15] = Circular dichroism secondary structure (Dichroweb), with POPG; assay type: physicochemical
Procedure: as §7, §8

[16] = Pore-size characterization by 3-kDa dextran release; assay type: biochemical; conditions: ‡Large pore for PG only
Text: Eight LDKA peptides with different lipid selectivity and pore sizes were selected from the high-throughput screen and sequenced. […] The most common mutation is L to A, occurred 13 times and in 7 out of the 8 peptides, followed by A to L, which occurred 6 times in 5 peptides, L to D which occurred 3 times in 3 peptides, and L to P that occurred once. Lysine (K) is not favorable to be shown at the position 6, 8, 10, 12, and 13, which is the non-polar face of the helical structure. […] More specifically, the analogs only induce leakage from anionic POPG vesicles have 4-5 leucines, which is less than the analogs that can porate both POPC and POPG vesicles and have 6-7 leucines in their sequences.

[17] = ANTS/DPX leakage assay, POPG; assay type: biochemical; conditions: P:L = 1:1000, pH 7 phosphate buffer
Procedure: as §1, §2

[18] = test system: S. aureus; assay: Bacterial minimum inhibitory concentration (MIC), S. aureus; assay type: cell-based, Staphylococcus aureus; conditions: 75 μM maximum tested; NDA = not determinable
Procedure: as §4

[19] = test system: methicillin-resistant Staphylococcus aureus (MRSA); assay type: cell-based; conditions: 75 μM maximum tested; NDA = not determinable

Substance | Solubility, DMSO [5] [µg/mL] | Solubility, DPBS pH 7.1 [5] [mg/mL] | Solubility, Ultrapure Water [5] [µg/mL] | Minimum Inhibitory Concentration, P. aeruginosa [8] | Peptide-POPC, Helix ([11]; 20 °C) [%] | Peptide-POPC, Strand ([11]; 20 °C) [%] | Peptide-POPC, Helix ([11]; 45 °C) [%] | Peptide-POPC, Strand ([11]; 45 °C) [%] | Peptide-POPC, Helix ([11]; 70 °C) [%] | Peptide-POPC, Strand ([11]; 70 °C) [%] | Peptide-POPC, Helix ([11]; 95 °C) [%] | Peptide-POPC, Strand ([11]; 95 °C) [%] | Peptide-only, Helix [14] [%] | Peptide-only, Strand [14] [%] | Peptide-POPG, Helix ([15]; 20 °C) [%] | Peptide-POPG, Strand ([15]; 20 °C) [%] | Peptide-POPG, Helix ([15]; 45 °C) [%] | Peptide-POPG, Strand ([15]; 45 °C) [%] | Peptide-POPG, Helix ([15]; 70 °C) [%] | Peptide-POPG, Strand ([15]; 70 °C) [%] | further results
GL5RL5G: polyleucine-based peptide of the acetyl-GLnRLnG-amide family, n=5 (SEQ ID NO: 28) (Ac-GLLLLLRLLLLLG-NH2) | – | – | – | – | – | – | – | – | – | – | – | – | – | – | – | – | – | – | – | – | ΔGS→TM [1]: 2.1 ± 0.2 kcal/mol
GL6RL6G: polyleucine-based peptide of the acetyl-GLnRLnG-amide family, n=6 (SEQ ID NO: 29) (Ac-GLLLLLLRLLLLLLG-NH2) | – | – | – | – | – | – | – | – | – | – | – | – | – | – | – | – | – | – | – | – | ΔGS→TM [1]: 0.5 ± 0.3 kcal/mol
H-GLADLAKLLLKLLGW-NH2 [Peptide 7F3] | 15000 | <0.1 | 5000 | NDA | 82 | 1 | 77 | 2 | 76 | 3 | 70 | 4 | 75 | 4 | 52 | 12 | 58 | 7 | 66 | 2 | ANTS/DPX release, POPC [2]: 88%; Hemolytic activity (in words) [3]: significantly haemolytic; HC50 at 1 hr [4]: 1100 nM; Membrane selectivity (POPC vs POPG vesicles) [6]: Non-selective; 3-kDa Dextran release, POPG [7]: 46%; MIC, ciprofloxacin-resistant E. coli [9]: completely fail; Elimination of E. coli biofilm [10]: ~50%; Reduction of S. aureus biofilms [12]: ~50%; 3-kDa Dextran release, POPC [13]: -3%; Peptide-POPG, Helix ([15]; 95 °C): 76%; Peptide-POPG, Strand ([15]; 95 °C): 2%; Pore size [16]: Small; ANTS/DPX release, POPG [17]: 106%
H-GLLDLLHLLLKAAGW-NH2 [Peptide K7H] | 15000 | <0.1 | 1000 | does not inhibit and NDA | 65 | 5 | 80 | 1 | 80 | 2 | 72 | 3 | 62 | 4 | 53 | 11 | 59 | 8 | 77 | 2 | CC50 at 1 hr [4]: 2300 nM; Reduction of S. aureus biofilms [12]: ~50%; Minimum Inhibitory Concentration, S. aureus [18]: 3 µM; Peptide-POPG, Helix ([15]; 95 °C): 77%; Peptide-POPG, Strand ([15]; 95 °C): 2%
H-GLLDLLKLLLKLAGW-NH2 [Peptide 28H6] | 15000 | <0.1 | 500 | NDA | 58 | 10 | 64 | 6 | 68 | 6 | 65 | 3 | 63 | 4 | 18 | 32 | 23 | 29 | 27 | 25 | ANTS/DPX release, POPC [2]: 99%; Hemolytic activity (in words) [3]: significantly haemolytic; HC50 at 1 hr [4]: 1200 nM; Membrane selectivity (POPC vs POPG vesicles) [6]: Non-selective; 3-kDa Dextran release, POPG [7]: 67%; Minimum Inhibitory Concentration, MRSA [19]: NDA; 3-kDa Dextran release, POPC [13]: 38%; Minimum Inhibitory Concentration, S. aureus [18]: NDA; Peptide-POPG, Helix ([15]; 95 °C): 55%; Peptide-POPG, Strand ([15]; 95 °C): 7%; Pore size [16]: Large; ANTS/DPX release, POPG [17]: 105%
